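All cell lines were grown in 96-well plates and treated with compound for 48 hours. GI50 = concentration required for 50% inhibition of growth. Definition used: TGI = concentration required for complete inhibition of growth.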 *1 amine or outer side, *2 acyl side, *3 side chain or, on linkers, in order; H or OH if unused. Where a SMILES comes first, the peptide text is derived from it. [ ]: non-standard residue; d: D form. The star is where a group is joined. X12 = NCCCCC(N[*:1])C(=O)CN1CCCC1C(=O)[*:2]; Pentadecanoyl = CCCCCCCCCCCCCCC(=O)*
Legend:
Experiment in all cases: DTP human tumour cell line panel, 48 h
CAKI-1 renal = test system: CAKI-1 renal
DU-145 prostate = test system: DU-145 prostate
HOP-92 NSCLC = test system: HOP-92 NSCLC
HT29 colon = test system: HT29 colon
IGROV1 ovarian = test system: IGROV1 ovarian
LOX IMVI melanoma = test system: LOX IMVI melanoma
MCF7 breast = test system: MCF7 breast
SK-MEL-2 melanoma = test system: SK-MEL-2 melanoma
SK-MEL-5 melanoma = test system: SK-MEL-5 melanoma
TK-10 renal = test system: TK-10 renal

Compound | TGI (CAKI-1 renal) [µM] | TGI (DU-145 prostate) [µM] | TGI (HOP-92 NSCLC) [µM] | TGI (HT29 colon) [µM] | TGI (IGROV1 ovarian) [µM] | TGI (LOX IMVI melanoma) [µM] | TGI (MCF7 breast) [µM] | TGI (SK-MEL-2 melanoma) [µM] | TGI (SK-MEL-5 melanoma) [µM] | TGI (TK-10 renal) [µM] | GI50 (CAKI-1 renal) [µM] | GI50 (DU-145 prostate) [µM] | GI50 (HOP-92 NSCLC) [µM] | GI50 (HT29 colon) [µM] | GI50 (IGROV1 ovarian) [µM] | GI50 (MCF7 breast) [µM] | GI50 (SK-MEL-2 melanoma) [µM] | GI50 (SK-MEL-5 melanoma) [µM] | GI50 (TK-10 renal) [µM]
CC(=O)OCC12C(OC(C)=O)C[C@@H](C)C3(CC(c4ccoc4)OC3=O)C1CCC(OC(C)=O)C21CO1 (stereo partly drawn) | > 100 | > 100 | > 100 | > 100 | > 100 | > 100 | > 100 | > 100 | > 100 | > 100 |  |  |  |  |  |  |  |  | 
N#Cc1nc(-c2ccccn2)c(-c2ccccn2)nc1C#N | 6.81 | 12.7 | > 45.6 | 14.4 | 22.2 | > 27.5 | 28 | 10.6 | > 36.5 | 17.3 |  |  |  |  |  |  |  |  | 
CCCCCC(=O)OCC1(CO)C/C(=C/CC(C(C)C)C(C)C)C(=O)O1 (stereo not drawn) | 66.8 | > 75 | > 75 | > 75 | 37.2 | 20.5 | > 75 | > 75 | > 75 | > 75 |  |  |  |  |  |  |  |  | 
O=C(N(C1=CCCC1)N(c1ccccc1)c1ccccc1)C(F)(F)F | 80.4 | 81.5 | 33.9 | 42.6 |  | 31.5 | 44.6 | 35 | 35.6 | > 100 |  |  |  |  |  |  |  |  | 
O=C1CSC(c2cc3cc(Br)ccc3nc2Cl)N1c1ccc(F)c(Cl)c1 (stereo not drawn) | > 50 | > 50 | > 50 | > 50 | > 50 | > 50 | > 50 | > 50 | > 50 | > 50 |  |  |  |  |  |  |  |  | 
NS(=O)(=O)c1ccc(NS(=O)(=O)c2ccc(NC(=O)N(c3ccccc3)c3ccccc3)cc2)cc1 | > 100 | > 100 | > 100 | > 100 | > 100 | > 100 | > 100 | > 100 | > 100 | > 100 |  |  |  |  |  |  |  |  | 
Cc1cc(S(=O)(=O)Nc2n[nH]c(N)n2)c(S)cc1Cl | > 10 | > 10 |  | > 10 | > 10 | > 10 | > 10 | > 10 | > 10 | > 10 |  |  |  |  |  |  |  |  | 
CC1CC2OC(=N)C1(C#N)C2(C#N)C#N (stereo not drawn) | 20.5 | > 100 | 36 | 47.7 | 51.4 | 31 | > 100 | 43.5 | 22.2 | 71.6 |  |  |  |  |  |  |  |  | 
O=C(Nc1ccccc1C(=O)O)C(=Cc1ccccc1O)NC(=O)c1ccccc1 | > 100 | > 100 | > 100 | > 100 | > 100 | > 100 | > 100 | > 100 | > 100 |  |  |  |  |  |  |  |  |  | 
CCOC(=O)C1=C(C)N(c2ccc(Cl)cc2)C2(O)C=CC(=O)C3C(=O)N(c4ccccc4)C(=O)C132 (stereo not drawn) | 4.72 | 4.65 | 1.96 | 3.18 | 3.11 | 3.69 | 4.06 | 3.53 | 3.47 | 3.49 |  |  |  |  |  |  |  |  | 
Oc1[nH]c2ccccc2c1N=NC(=S)NCc1ccccn1 | 11.7 | 12.7 | 18.1 | > 43 | 13.9 | 15.3 | 14.1 | 28.7 | 12 | 18.3 |  |  |  |  |  |  |  |  | 
Cc1cc(=O)oc2c(CN(CCCl)CCCl)c(O)ccc12 | > 100 | > 100 | > 100 | > 100 | > 100 | > 100 | > 100 | > 100 | > 100 |  |  |  |  |  |  |  |  |  | 
NC(=O)c1nnc2c(F)cccc2c1N | > 100 | > 100 |  | > 100 | > 100 | > 100 | > 100 | > 100 | > 100 | > 100 |  |  |  |  |  |  |  |  | 
CC(=O)c1nc(C#N)c(N)o1 | > 100 | > 100 | > 100 | > 100 | > 100 | > 100 | > 100 | > 100 |  | > 100 |  |  |  |  |  |  |  |  | 
CCN(CC)CCC1(C(=O)OC)SCCc2ccc(C)cc21 (stereo not drawn) | > 100 | > 100 | > 100 |  | > 100 | > 100 | > 100 | > 100 | > 100 | > 100 |  |  |  |  |  |  |  |  | 
CC1CC/C(=C\c2ccc(F)cc2)C2=C1C(c1ccc(F)cc1)NC(=S)N2 (stereo not drawn) | > 100 | > 100 |  | > 100 | > 100 | > 100 | > 100 | > 100 | > 100 | > 100 |  |  |  |  |  |  |  |  | 
CCCCCCCCCCCCCCC(=O)NC(CCCCN)C(=O)CN1CCCC1C(=O)NCC(=O)NC(Cc1ccccc1)C(=O)N1CCCC1C(=O)NC(CO)C(=O)NC(Cc1ccc(O)cc1)C(=O)NC(CCCCN)C(=O)NC(CC(C)C)C(=O)NC(CCCN=C(N)N)C(=O)N1CCCC1C(=O)NCC(N)=O (stereo not drawn) (Pentadecanoyl-[X12]GFPSYKLRPG-NH2; configuration not given here) | 48.7 | 53.8 | 37.4 | > 100 | 57.3 |  | 61.3 | > 100 | > 100 | 32.9 | 20.6 | 24.1 | 15.9 | 36.9 | 19.5 | 27.6 | 37.5 | 30.5 | 11.7
O=C1CSC2=NC3=C(COC/C3=C\c3ccc(F)cc3)C(c3ccc(F)cc3)N12 (stereo not drawn) | > 100 | > 100 | > 100 |  | > 100 | > 100 | > 100 | > 100 | > 100 | > 100 |  |  |  |  |  |  |  |  | 
Cn1c(-c2cccs2)cc(-c2ccsc2)c1-c1ccsc1 | > 100 | > 100 | > 100 | > 100 | > 100 |  | > 100 |  | > 100 | > 100 |  |  |  |  |  |  |  |  | 
C/C(=N/NC(=O)c1ccccc1Nc1ccccc1C(=O)N/N=C(\C)c1ccc(C)cc1)c1ccc(C)cc1 | > 100 | > 100 | > 100 | > 100 | > 100 |  | > 100 | > 100 | > 100 | > 100 |  |  |  |  |  |  |  |  | 
COc1ccc(C2=C(N)c3cc(OC)ccc3C2=O)cc1 | > 100 | > 100 | > 100 | > 100 | > 100 | > 100 | > 100 | > 100 | > 100 |  |  |  |  |  |  |  |  |  | 
C/C(=N\Nc1nc2ccccc2n1C)c1ccncn1 | > 75 | > 44.7 | 2.64 | 30.3 |  |  | > 100 | > 100 | 11.6 | > 100 |  |  |  |  |  |  |  |  | 
